Reference: patent publication US12570618B2, “Compound, production method therefor, and pharmaceutical composition” (TOKYO UNIVERSITY OF SCIENCE FOUNDATION, priority 2021, dated 2026)

Columns and labels:
Experiment in all cases: cell proliferation inhibitory activity, WST-8 (Test Example 3)
Assay type in all cases: cell-based
[1] = system: H1650 (Lung adenocarcinoma cell line); settings: Homo sapiens, NCI-H1650, 48 h; H1650, 2 days with compound, WST-8, Table 3
Description: (§1) Compounds RS8 to RS10 obtained in Synthesis Examples 8 to 10 were examined for cell proliferation inhibitory activity against human cultured cancer cells. The cancer cells used were two human lung adenocarcinoma cell lines and one human lung squamous cell carcinoma cell line. The cancer cells of each type were seeded on a 96-well plate and cultured for 2 days, and cultured for 2 days with addition of serially diluted products of the compounds, and the cell proliferation was then measured by colorimetry with a water-soluble tetrazolium salt (WST-8). Thereafter, 50% cell proliferation inhibitory concentrations (GI50) were calculated from the cell proliferation curves.

[2] = system: H2228 (Lung adenocarcinoma cell line); settings: Homo sapiens, NCI-H2228, 48 h; H2228, 2 days with compound, WST-8, Table 3
Description: as §1

[3] = system: H226 (Lung squamous cell carcinoma cell line); settings: Homo sapiens, NCI-H226, 48 h; H226, 2 days with compound, WST-8, Table 3
Description: as §1

GI50 [1]: 200 nM | GI50 [2]: 400 nM | GI50 [3]: 40 nM
SMILES: C[C@@H]1[C@@H](O)[C@H](C)C[C@@H]2C=C[C@H](C)[C@H](/C=C/C=C(\Br)C(=O)OCc3cccnc3)[C@@H]12 [RS9, Pyridin-3″-ylmethyl (2Z,4E)-2-bromo-5-((1′S,2′S,4′aR,6′R,7′S,8′S,8′aS)7′-hydroxy-2′,6′,8′-trimethyl-1′,2′,4′a,5′,6′,7′,8′,8′a-octahydronaphthalen-1′-yl)penta-2,4-dienoate]
